Laboratory results as given in PubChem BioAssay AID330 (DTP/NCI, 2004).
“And” between values parts separate entries of the source, which are not always exact repeats. Identical values can stand only once. Toxic doses and inconclusive results are not listed.

System: P388 leukemia ip, CD2F1 mice, survival T/C
Assay: NCI In Vivo Anticancer Drug Screen. Data for tumor model P388 Leukemia (intraperitoneal) in CD2F1 (CDF1) mice
Conditions: endpoint: median survival time, higher = longer survival
Outline: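 Mice carrying the transplanted tumor received test compound or vehicle. Survival was recorded in each group, and the value is the treated-group measurement divided by that of the vehicle-treated control group.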

In the case of COc1cccc2c1C(=O)c1c(O)c3c(c(O)c1C2=O)CC(O)(C(C)=O)CC3OC1CC(N)C(O)C(C)O1 (stereo not given), the T/C (dose: 0.63 mg/kg/injection, schedule: Q01DX009 (ip), vehicle: water) is reported as 150 % of control and 163 % of control, the T/C (dose: 1.25 mg/kg/injection, schedule: Q01DX009 (ip), vehicle: water) is reported as 158 % of control [middle of 7 runs] and the T/C (dose: 1.5 mg/kg/injection, schedule: Q01DX009 (ip), vehicle: water) is reported as 103 % of control. For the same molecule, the T/C (dose: 2.5 mg/kg/injection, schedule: Q01DX009 (ip), vehicle: water) was 160 % of control [middle of 16 runs], the T/C (dose: 2.9 mg/kg/injection, schedule: Q01DX009 (ip), vehicle: saline) was 102 % of control and the T/C (dose: 3.0 mg/kg/injection, schedule: Q01DX009 (ip), vehicle: water) was 110 % of control. For the same molecule, the T/C (dose: 3.13 mg/kg/injection, schedule: Q01DX009 (ip), vehicle: water) was 155 % of control, the T/C (dose: 5.0 mg/kg/injection, schedule: Q01DX009 (ip), vehicle: water) was 167 % of control [middle of 17 runs] and the T/C (dose: 6.0 mg/kg/injection, schedule: Q01DX009 (ip), vehicle: water) was 110 % of control. For the same molecule, the T/C (dose: 6.25 mg/kg/injection, schedule: Q01DX009 (ip), vehicle: water) was 171 % of control, the T/C (dose: 8.0 mg/kg/injection, schedule: Q04DX003 (ip), vehicle: water) was 114 % of control and the T/C (dose: 10.0 mg/kg/injection, schedule: Q01DX009 (ip), vehicle: water) was 178 % of control [middle of 14 runs]. For the same molecule, the T/C (dose: 11.0 mg/kg/injection, schedule: Q04DX003 (ip), vehicle: water) was 103 % of control and 109 % of control, the T/C (dose: 12.0 mg/kg/injection, schedule: Q01DX009 (ip), vehicle: water) was 116 % of control and the T/C (dose: 12.5 mg/kg/injection, schedule: Q01DX009 (ip), vehicle: water) was 174 % of control. For the same molecule, the T/C (dose: 15.0 mg/kg/injection, schedule: Q04DX003 (ip), vehicle: water) was 121 % of control, the T/C (dose: 16.0 mg/kg/injection, schedule: Q04DX003 (ip), vehicle: water) was 110 % of control and 122 % of control and the T/C (dose: 20.0 mg/kg/injection, schedule: Q01DX009 (ip), vehicle: other) was 155 % of control. For the same molecule, the T/C (dose: 21.9 mg/kg/injection, schedule: Q04DX003 (ip), vehicle: water) was 97 % of control and 118 % of control, the T/C (dose: 23.4 mg/kg/injection, schedule: Q01DX009 (ip), vehicle: saline) was 188 % of control and the T/C (dose: 24.0 mg/kg/injection, schedule: Q01DX009 (ip), vehicle: water) was 108 % of control. For the same molecule, the T/C (dose: 25.0 mg/kg/injection, schedule: Q01DX009 (ip), vehicle: water) was 197 % of control, the T/C (dose: 40.0 mg/kg/injection, schedule: Q01DX009 (ip), vehicle: water) was 104 % of control and the T/C (dose: 43.8 mg/kg/injection, schedule: Q04DX003 (ip), vehicle: water) was 106 % of control. For the same molecule, the T/C (dose: 64.0 mg/kg/injection, schedule: Q04DX003 (ip), vehicle: water) was 110 % of control, the T/C (dose: 87.5 mg/kg/injection, schedule: Q04DX003 (ip), vehicle: water) was 157 % of control and the T/C (dose: 88.0 mg/kg/injection, schedule: Q04DX003 (ip), vehicle: water) was 182 % of control. For the same molecule, the T/C (dose: 120.0 mg/kg/injection, schedule: Q04DX003 (ip), vehicle: water) was 160 % of control, the T/C (dose: 128.0 mg/kg/injection, schedule: Q04DX003 (ip), vehicle: water) was 168 % of control and 172 % of control and the T/C (dose: 175.0 mg/kg/injection, schedule: Q04DX003 (ip), vehicle: water) was 182 % of control. The T/C (dose: 240.0 mg/kg/injection, schedule: Q04DX003 (ip), vehicle: water) was 101 % of control, the T/C (dose: 256.0 mg/kg/injection, schedule: Q04DX003 (ip), vehicle: water) was 177 % of control and the T/C (dose: 350.0 mg/kg/injection, schedule: Q04DX003 (ip), vehicle: water) was 97 % of control.
For CCN(CC)CC(C)=O, the T/C (dose: 25.0 mg/kg/injection, schedule: Q01DX009 (ip), vehicle: saline) was 101 % of control, the T/C (dose: 50.0 mg/kg/injection, schedule: Q01DX009 (ip), vehicle: saline) was 102 % of control and the T/C (dose: 100.0 mg/kg/injection, schedule: Q01DX009 (ip), vehicle: saline) was 103 % of control. The T/C (dose: 200.0 mg/kg/injection, schedule: Q01DX009 (ip), vehicle: saline) was 104 % of control.
In the case of CSc1nc(Cl)cc(N2CC2)n1, the T/C (dose: 0.5 mg/kg/injection, schedule: Q04DX003 (ip), vehicle: saline) is reported as 110 % of control, the T/C (dose: 1.0 mg/kg/injection, schedule: Q04DX003 (ip), vehicle: saline) is reported as 100 % of control and the T/C (dose: 2.0 mg/kg/injection, schedule: Q04DX003 (ip), vehicle: saline) is reported as 100 % of control.
